± gives the expanded uncertainty stated by the source.
Key:
[1] = refractive index (Na D-line) (dimensionless); conditions: 298.15 K; 101.33 kPa; Liquid; Standard Abbe refractometry
[2] = 298.15 K; 101.33 kPa; Liquid; Vibrating tube method
[3] = wn = mass fraction of the nth substance listed; conditions: 298.15 K, 101 kPa, Liquid, Vibrating tube method

refractive index [1] | mass density [2] [kg/m3] | mass density ([3]; w1 = 0.0115) [kg/m3] | mass density ([3]; w1 = 0.05) [kg/m3] | mass density ([3]; w1 = 0.101) [kg/m3] | mass density ([3]; w1 = 0.2011) [kg/m3] | mass density ([3]; w1 = 0.3051) [kg/m3] | mass density ([3]; w1 = 0.3993) [kg/m3] | Structure (SMILES)
1.4659 ± 0.0009 | 1075.12 ± 6.3 |  |  |  |  |  |  | CCCC(=O)[O-].[NH3+]CCO [2-hydroxy ethylammonium butanoate]
 |  | 999.43 ± 2.2 | 1006.63 ± 8.8 | 1016.39 ± 11 | 1033.12 ± 8.9 | 1046.73 ± 7.6 | 1058.12 ± 7.3 | CCCC(=O)[O-].[NH3+]CCO [2-hydroxy ethylammonium butanoate] + O
